Results on one compound are retold here after US10561638B2, “Methods for treating dependence” (Biotie Therapies, Inc., priority 2007, dated 2020).

A short description of the data set: Plasma and tissue compound levels in dogs. Format: in vivo, beagle dogs. As for the experimental part: Male Beagle dogs (Marshall farms, North Rose, N.Y.) weighing between 9-16 kg were used in the study. The animals were allowed water ad libitum and given food once daily at ˜10.00 AM. Animals were randomly assigned to one of the following treatment groups (n=8/group): placebo (empty capsule), or nepicastat at 2 mg/kg b.i.d (4 mg/kg/day). Each animal received 2 doses daily, morning and afternoon (8-10 hours apart). Daily blood samples (10 ml) were drawn 6 h after the AM dose for measurement of plasma levels of nepicastat and catecholamines. The blood was collected in tubes containing heparin and glutathione and centrifuged at −4° C. within 1 h of collection. The plasma was separated and divided into two samples, one for the measurement of plasma catecholamines and the other for analysis of nepicastat.
Plasma norepinephrine (NE), dopamine (DA) and epinephrine (EPI) were analyzed by HPLC using electrochemical detection. Plasma concentration of nepicastat was determined by HPLC using electrochemical detection.
Thirty-two male beagle dogs, weighing 10-12 kg, were randomly assigned to one of the following 4 treatment groups (n=8 per group): nepicastat at 0 mg/kg/day (placebo), 10 mg/kg/day (5 mg/kg b.i.d.), 30 mg/kg (15 mg/kg b.i.d.), or 60 mg/kg/day (30 mg/kg b.i.d.). Dog numbers 1-16 were assigned as dose group A and dog numbers 17-32 as dose group B. The terminal surgery for tissue harvest was performed over 2 days with 16 animals studied per day. Two or 3 days before the first compound administration each dog was weighed and skin regions overlying both cephalic, saphenous and jugular veins were shaved. Dosing consisted of oral administration of one capsule with the second given 8-10 hr later. Dogs were dosed as scheduled on days 1-3. On day 4, prior to the AM dose, 3 ml of blood were obtained from a jugular vein for determination of baseline plasma compound levels. The dog was then administered the AM dose, and at 1, 2, 4 and 8 hr following the dose additional 3 ml blood samples were collected for determination of plasma compound levels. […]

Consider `Cl.NCc1c[nH]c(=S)n1[C@H]1CCc2c(F)cc(F)cc2C1` [nepicastat, (S)-5-Aminomethyl-1-(5,7-difluoro-1,2,3,4-tetrahydronaphth-2-yl)-2,3-dihydro-2-thioxo-1H-imidazole hydrochloride], for which the “time of peak plasma levels of the drug” value (2 mg/kg bid, sampled 6 h after AM dose) is 2 days post-dose. Besides, for the setting “10, 30, 60 mg/kg/day, Day 4 and Day 5”, the “dose proportionality of nepicastat concentration in plasma and tissue” value is listed as “dose-proportional”. Besides, the “levels of nepicastat in tissues vs plasma” value (Day 5, all tissues examined) is recorded as “higher than those in plasma”.
